According to patent EP0095813A2, “Penetrating topical pharmaceutical compositions containing 9-(2-hydroxyethoxymethyl) guanine” (THE PROCTER & GAMBLE COMPANY, priority 1982, dated 1983):

What was measured:
[1] = cited from earlier work
[2] = Skin penetration study, Franz diffusion apparatus, transport across human epidermis in vitro; assay type: in vitro ADME; conditions: binary system with a cell-envelope disordering compound versus standard vehicle/solvent; heat-separated abdominal epidermis, about 31°C
From the text: The following data illustrate the effects of incorporating 9-(2-hydroxyethoxymethyl) guanine into a standard vehicle/sol- vent versus the same pharmaceutical active used in a binary system with a cell-envelope disordering compound.
The above data reflect relative transport of 9-(2-hydroxyethoxymethyl) guanine across human epidermis in vitro.
In the above skin penetration studies, human skin, (heat- separated abdominal epidermis, taken at autopsy), was placed in a standard Franz diffusion apparatus (Crown Glass Co., Somerville, N.J.) in a horizontal position between a lower, capped diffusion cell and an upper, open cell. A normal saline solution was added to the lower diffusion cell, abutting the subcutaneous side of the skin, and the test composition comprising a solution of active drug in the carrier at indicated formulation was added to the diffusion cell abutting the epidermal side of the skin.
This cell assembly was kept in a constant-temperature room at about 31°C. At appropriate intervals, each diffusion cell assembly was opened and the diffusate from the cell abutting the subcutaneous side of the skin was withdrawn. Drug active in the diffusate was measured using standard analytical techniques. Each trial was run on a separate sample of human skin.

Compound: Nc1nc2c(ncn2COCCO)c(=O)[nH]1 [9-(2-hydroxyethoxymethyl) guanine]
- solubility in lipophilic solvent systems ([1]; lipophilic solvent systems): almost totally insoluble
- solubility in water ([1]; water): slightly soluble
- Penetration (relative transport across human epidermis in vitro) [2]: significantly enhanced
